The record followed here is US11697833B2, “Antimicrobial susceptibility testing device and method for use with portable electronic device” (THE REGENTS OF THE UNIVERSITY OF CALIFORNIA, priority 2016, dated 2023).

This test has as its system Klebsiella pneumoniae. Briefly: Broth microdilution antimicrobial susceptibility testing (AST) of patient isolates, 96-well plate read for turbidity. In kind it is cell-based. The settings on record: clinical patient isolate plates, 24 hours at 37° C, plate ID 1 (AM), 5 (A/S), 8 (MPM); for Diagnostician Decision (drug susceptibility interpretation): expert diagnostician visual reading (gold standard); for Automated System Decision (drug susceptibility interpretation): mobile phone-based AST plate reader, misdiagnosed cases. An excerpt: To determine whether a particular well 22 contains sufficient turbidity or not, a threshold-based approach is used to determine the cut-off transmittance value for each well 22. As the turbidity increases, the light transmittance through the well decreases. This operation is illustrated as operation 230 in FIGS. 4 and 5. In particular, thresholding is applied to average normalized well intensities of sample-containing wells to determine whether a particular well 22 is classified as “turbid” or “not turbid.” To choose an accurate threshold value for each well 22, the normalized transmittance values of wells 22 with no turbidity are extracted from a training set of blank reference plates 20 (i.e., plates with drugs but no microbes). For example, sixty (60) such plates that are blanks can be imaged to determine the mean transmittance at each well 22. […] In one embodiment, from this set of normalized transmittance values from wells 22 with no turbidity, a threshold of two times the standard deviation below the mean of that particular well 22 is used to determine whether a given test or sample-containing well 22 is statistically likely to have microbial growth represented by turbidity. Those wells 22 that have an averaged, normalized intensity level that is lower than two times the standard deviation below the mean “not turbid” value are classified as “turbid” while wells 22 that don't meet that criteria are classified as “not turbid.” Of course, other measures may be used for defining the cutoff or threshold. For example, fractional standard deviation may also be used for a cutoff or threshold. In addition, the threshold could also include a numerical cutoff of intensity or other multiple of the standard deviation.
With reference to FIG. 3, after the wells 22 are classified as “turbid” or “not turbid,” the software 112 generates MIC values and susceptibility characterizations for the drug(s) on the AST plate 20. For a given type of AST plate 20 (i.e., Gram-negative or Gram-positive), the MIC value for each drug is determined by finding the lowest concentration of drug in a drug-specific set of wells 22 that contains no turbidity. More specifically, the MIC value is based on the adjacent, well 22 that is classified as not turbid as this well represents the lowest concentration of antibiotic that prevented bacterial growth (i.e. the MIC). Depending on the selected microbe of interest, drug susceptibility interpretations are automatically made by the software 112 based on the MIC for each drug. FIG. 7 illustrates the layout of a map or table 114 for the AST plate 20 with susceptibility characterizations for each drug at different concentration levels. The map or table 114 with susceptibility characterizations for each drug at different concentration levels may be stored in a database (e.g., database 109 or other local storage device) as a look-up table or the like. In some embodiments, the map or table 114 for each different bacterium may be stored in the database 109 or local storage device. For example, in looking at FIG. 7 with the example of the drug ampicillin (AM), various concentrations (μg/ml) of this drug is present within wells B1, C1, D1, E1 along with a growth medium. If wells B1 and C1 were classified as turbid while wells D1 and E1 were classified as not turbid, the MIC reading would be 16 μg/ml (e.g., looking at concentration in well D1). Likewise, the susceptibility characterization would be classified as “indeterminate” using the map or table 114. […]
For orientation: Broth dilution looks for growth in wells or tubes with falling amounts of substance.

Turning to `C[C@@H](O)[C@H]1C(=O)N2C(C(=O)O)=C(S[C@@H]3CN[C@H](C(=O)N(C)C)C3)[C@H](C)[C@H]12` [MPM, Meropenem], the “Diagnostician Decision (drug susceptibility interpretation)” value is reported as “Susceptible” and the “Automated System Decision (drug susceptibility interpretation)” value is reported as “Resistant”.
The matching figures for `CC1(C)S[C@@H]2[C@H](NC(=O)[C@H](N)c3ccccc3)C(=O)N2[C@H]1C(=O)O` [AM, Ampicillin]: “Indeterminate” and “Resistant”.
Regarding Ampicillin-Sulbactam [A/S], the “Diagnostician Decision (drug susceptibility interpretation)” value is “Indeterminate” and the “Automated System Decision (drug susceptibility interpretation)” value is on record as “Resistant”.
